Measurements from a melting point compilation (Tetko et al.; mined from patent text by program, amines drawn as free bases though some values may be those of a salt).

`CC12CCC3C(CCC4CC=CCC43C)C1CC=C2Br` (stereo not drawn) gave a melting point of 76 to 77 °C.
Compound `CCOC(=O)c1cc(F)c(SCC)nc1NCc1ccc(OC)cc1` has a melting point of 59 °C.
Work on `CS(=O)(=O)OCCC1c2ccccc2C(=O)N1c1ccccc1` (stereo not drawn) yielded a melting point of 100 to 101 °C.
For `COc1cc(CCCCC2OC(=O)NC2=O)ccc1OCc1coc(/C=C/c2ccc3ccccc3c2)n1` (stereo not drawn), the melting point was 169 to 170 °C.
With `Cc1ccc2c(c1)C=Cn1c(n[nH]c1=O)C2` the melting point was 232 to 234 °C.
`O=Cc1c2ccccc2c(C=O)c2c1ccc1ccccc12` showed a melting point of 197 to 198 °C.
With `CCCCOc1c(-c2ccc(S(C)(=O)=O)cc2)cnn(-c2ccc(F)c(F)c2)c1=O` the melting point was 129 to 132 °C.
`CCOC(=O)[C@H](Cc1ccc(-c2c(OC)cc(COS(C)(=O)=O)cc2OC)cc1)NC(=O)c1c(F)cccc1Cl` gave a melting point of 104 to 107 °C.
`C=C(C)C1=CC(C)(C)Oc2c(OCC)cc(Cc3cnc(N)nc3N)cc21` showed a melting point of 188 to 189 °C.
`O=C(O)Cc1ccc(Br)cc1C(=O)O` showed a melting point of 210 to 213 °C.
Work on `CCCCCCCCCCCCC1=C(OCC)C(=O)c2ccccc2C1=O` yielded a melting point of 36 to 38 °C.
With `CN(C)C=C(C(=O)c1ccccc1)C(=O)c1ccccc1` the melting point was 120 °C.
Compound `CCCCNC(=O)Nc1ccc(S(C)=O)cc1C(=O)NCC1CCN(C(c2ccccc2)c2ccccc2)CC1` (stereo not drawn) has a melting point of 178 to 179 °C.
`COc1ccc2c3c(c(=O)oc2c1)CN(Cc1ccc([N+](=O)[O-])cc1)CC3` showed a melting point of 176 to 178 °C.
Compound `CCCN(CCC)C1Cc2c(OC)ccc3ncn(c23)C1` (stereo not drawn) has a melting point of 46 to 49 °C.
In the case of `OCCOCCNc1nc(-n2ccnc2)nc2ccc(CO)cc12`, the melting point is reported as 183 °C.
For `O=C(NCC1(c2ccccc2)CCCCC1)Nc1ccccc1`, the melting point was 162 to 164 °C.
`O=C(Nc1ccc(C(=O)N2Cc3ccccc3Cc3ccccc32)cc1)c1c(Cl)cccc1Cl` gave a melting point of 257 to 259 °C.
For `COc1c(C#N)c(OC)c(OC)c(OC)c1OC`, the melting point was 64 °C.
For `N#CCCCNc1cccc(/C=C/c2nc3ccccc3s2)c1`, the melting point was 97 to 98 °C.
With `NS(=O)(=O)c1cc(C(=O)CCCC(=O)O)cc2c1OCC2` the melting point was 207 to 209 °C.
`CC(=O)OCCN1CSC(=Cc2cc(C(C)(C)C)c(O)c(C(C)(C)C)c2)C1=O` gave a melting point of 152 to 155 °C.
`O=C(O)CN(CCN(CC(=O)O)CC(=O)O)CCN(CC(=O)O)CC(=O)Nc1ccccc1` showed a melting point of 125 °C.
For `CCOC(=O)c1c(C(F)(F)F)nc(C(F)F)c(C(=O)OC)c1OC(C)C`, the melting point was 29 to 31 °C.
For `Cc1nnc(NCCCN2CCCC2=O)c2c1cc1ccccn12`, the melting point was 257 to 258 °C.
Work on `CCOC(=O)C(=O)Nc1ccc2cc(Br)ccc2c1[N+](=O)[O-]` yielded a melting point of 175 °C.
For `Cc1cc(C2=NOC(c3cc(Cl)cc(Cl)c3)(C(F)(F)F)C2)ccc1C(=O)N(C)C1CCCS1` (stereo not drawn), the melting point was 146 to 151 °C.
For `CCCOc1ccc2c(c1)C(c1ccc(OC)cc1-c1cccc(C(=O)O)c1)C(C(=O)O)C2c1ccc2c(c1)OCO2` (stereo not drawn), the melting point was 257 to 268 °C.
In the case of `CCCCS(=O)(=O)NC(CNC(=O)c1cccc(C(=O)C2CCC3(CCNCC3)CC2)c1)C(=O)O` (stereo not drawn), the melting point is reported as 155 to 157 °C.
For `O=C(O)c1ccc2c(c1)N(C1CC1)CNS2(=O)=O`, the melting point was 243 to 245 °C.
In the case of `Cc1nc2c(N)nc3ccccc3c2n1Cc1ccccc1`, the melting point is reported as 279 to 282 °C.
`c1ccc(CN2CCCC(c3ncc(-c4cnc(-c5ccccc5)nc4)[nH]3)C2)cc1` (stereo not drawn) gave a melting point of 179 °C.
Work on `O=C(N[C@H]1CC[C@H](CCN2CCC(c3cccc4c3CCO4)CC2)CC1)C1CC1` yielded a melting point of 208 °C.
`CCOC(=O)COC1CCC2C3CCC4N=CCCC4(C)C3CCC12C` (stereo not drawn) gave a melting point of 170 to 172 °C.
`O=C(Nc1nc(-c2ccco2)c(C(=O)C2CCCC2)s1)c1ccncc1` showed a melting point of 168 to 181 °C.
`Oc1ccc2c(c1)COc1c-2cc2ccc(O)cc2c1-c1cccc(F)c1` gave a melting point of 225 to 227 °C.
In the case of `COc1c(-c2ccc3cc(NS(C)(=O)=O)ccc3c2)cc(NC(N)=O)cc1C(C)(C)C`, the melting point is reported as over 300 °C.
For `COc1cccc(CC(=O)O)c1OCCCc1cc(OC(C)C)nn1Cc1ccc(C(F)(F)F)cc1Cl`, the melting point was 98 to 99 °C.
With `CCN1C(=O)C(=O)C(C)=C(C#N)C1=O` the melting point was 159 to 160 °C.
`COC1(c2cc(F)cc(Sc3ccc(/C(C)=N/O)c(OCc4ccccc4)c3)c2)CCOCC1` gave a melting point of 130 to 131 °C.
`COC(=O)c1[nH]c2c(C)ccc(Cl)c2c1C(C)=O` gave a melting point of 167 to 168 °C.
`Cc1ccc(S(=O)(=O)N2[C@@H](CC#N)CC[C@H]2c2ccc(F)cc2)cc1` (racemic) showed a melting point of 116 °C.
For `O=C(O)c1ccc(-c2nc(-c3ccc(Br)cc3)cs2)cc1`, the melting point was over 300 °C.
For `Cc1cc(S(=O)(=O)N2c3ccccc3-c3ccc(F)cc3C2C)ccc1O` (stereo not drawn), the melting point was 196 °C.
In the case of `NC(=S)NN=Cc1ncc([N+](=O)[O-])n1Cc1ccccc1`, the melting point is reported as 193 to 196 °C.
Work on `CN(C(=O)CN(C(=O)CNC(=O)Nc1cccc(N2CCCCC2)c1)c1ccccc1)c1ccccc1` yielded a melting point of 235 °C.
Work on `CNC(=O)[C@@H](NC(=O)[C@@H](CC(=O)O)n1ccc(-c2ccc(-c3ccc(C#N)cc3)cc2)c1)C(C)(C)C` yielded a melting point of 142 to 144 °C.
With `CS(=O)(=O)c1ccc2c(c1)C(=O)Cc1ccccc1O2` the melting point was 105 to 106 °C.
